This is an account of results in patent US10676780B2, “Stabilisation and isolation of extracellular nucleic acids” (QIAGEN GmbH, priority 2011, dated 2020).

In series [1] the target is anthrax lethal factor (Bacillus anthracis, UniProt P15917). To be noted: cited from earlier work.
In series [2] the test system is MCF7 breast cancer cells. The settings on record: at 20 μM; cited from earlier work.
For series [3], the system named is mitochondrial division. The settings on record: cited from earlier work.
Series [4] concerns etoposide-induced cortical neuron death. To be noted: cited from earlier work; for EC50: read-out: ED50 (the source's name).
The conditions of series [5]: neuron culture medium at 37° C.; cited from earlier work.
The conditions of series [6]: administered in rats in vivo; cited from earlier work.
Series [7] has as its system whole blood samples. In words: DNA size distribution by chip gel electrophoresis of DNA isolated from plasma of stored whole blood. The settings on record: for genomic DNA release/fragmentation: day 7, RT; for ladder-like pattern of DNA bands (release/fragmentation of genomic DNA): 20 μM end concentration in 10 ml blood, stored at RT, day 3 and day 7, vs DMSO control and K2E blood. It counts as cell-based. The procedure:
A test system was designed, wherein cell-containing biological samples, here whole blood samples, were incubated at room temperature (RT) for up to 6 or 7 days. Therein, the sample stabilizing properties of the additives of the present invention were tested on day 0, day 3 and day 6/7 the samples. The samples were processed according to the following protocols, where applicable (for details, see also the specific examples in the results section):
To separate the blood plasma from the whole blood, the blood samples were centrifuged for 15 min at 5000 rpm, and the obtained plasma samples were again centrifuged for 10 min at 16.000×g at 4° C.
(§1) The circulating, extracellular nucleic acids were purified from the obtained plasma samples using the QIAamp® Circulating NA Kit (according to the handbook). In brief: • 10 ml sample input; • lysis: 1 ml Proteinase K and 8 ml Buffer ACL (QIAGEN) • binding: 18 ml Buffer ACB (QIAGEN) • wash-steps: unchanged and according to handbook • elution in 60 μl Buffer AVE (QIAGEN) 4. Analysis of the Eluates
4.1. Measurement of the blood cell stability/DNA release by the determination of DNA size distribution using a chip gel electrophoresis (2100 Bioanalyzer; Agilent Technologies; Inc., USA) according to manufacturer's instruction (see handbook Agilent DNA 7500 and DNA 12000 Kit Guide), but 1.5 μl instead of 1 μl sample were transferred to the wells.
The eluted circulating cell-free DNA was separated by size using chip gel electrophoresis (for details on the method see above, I, 4.1). […] The DMSO control and the K2E blood (not treated according to the teachings of the present invention) show the same ladder-like pattern of bands. This pattern occurs in samples where apoptosis takes place. During apoptosis, endonucleases degrade genomic DNA at inter-nucleosomal linker regions and produce DNA fragments of circa 180 bp or multiples of 180 bp. Thus, apoptosis occurs in samples which show a clear ladder-like pattern. Furthermore, the strength (darkness) of the pattern is decisive. The darker the bands, the more genomic DNA was released from the cells and thus contaminates the extracellular nucleic acid population.

Series [8] deals with whole blood samples. Nature of the series: ribosomal 18S DNA duplex real time PCR: increase of DNA in plasma of stored whole blood. It counts as cell-based, human. To be noted: for increase of genomic DNA in the plasma (18S DNA duplex assay) / x-fold increase of ribosomal 18S DNA in plasma: within 7 days of storage at RT; for x-fold increase of ribosomal 18S DNA in plasma: 20 μM in 10 ml blood. The procedure:
A test system was designed, wherein cell-containing biological samples, here whole blood samples, were incubated at room temperature (RT) for up to 6 or 7 days. Therein, the sample stabilizing properties of the additives of the present invention were tested on day 0, day 3 and day 6/7 the samples.
as §1
4.2. DNA quantification with a real time PCR assay, sensitive for DNA degradation (target: 500 and 66 bp long ribosomal 18S DNA coding sequences).
(samples were diluted 1:10 before amplification)
Detection of ribosomal 18S DNA by quantitative real-time PCR, makes it possible to calculate the x-fold increase of DNA from day 0 to day 3 or 7 (calculation: division of day 3 (or 7) copies by day 0 copies).
The division of short amplicon copy number by long amplicon copy number (66 by/500 bp) indicates whether the amount of detected short or long amplicons changes over time in a similar way. A decrease of this ratio implies a stronger release of longer rather than of shorter DNA molecules and can be interpreted as release of high molecular weight genomic DNA from blood cells.
On day 0, day 3 and day 6, replicates were processed as follows. […] The collected plasma was centrifuged at 16,000×g for 10 minutes at 4° C. The cleared plasma fraction was collected and the extracellular nucleic acids were isolated using the QIAamp Circulating nucleic acid kit (1 ml input material, 60 μl elution volume). […] Values that are close to 1 imply preserved levels of ccfDNA. The higher the value, the less stabilization is achieved.
On the technique in general: Quantitative PCR measures a nucleic acid by following its amplification.

Series [9] concerns the target caspase-8 (Homo sapiens, UniProt Q14790). To be noted: cited from earlier work.
The target of series [10] is T1, human recombinant caspase-1 (Homo sapiens, UniProt P29466).
T1 sequence (P29466 120-404): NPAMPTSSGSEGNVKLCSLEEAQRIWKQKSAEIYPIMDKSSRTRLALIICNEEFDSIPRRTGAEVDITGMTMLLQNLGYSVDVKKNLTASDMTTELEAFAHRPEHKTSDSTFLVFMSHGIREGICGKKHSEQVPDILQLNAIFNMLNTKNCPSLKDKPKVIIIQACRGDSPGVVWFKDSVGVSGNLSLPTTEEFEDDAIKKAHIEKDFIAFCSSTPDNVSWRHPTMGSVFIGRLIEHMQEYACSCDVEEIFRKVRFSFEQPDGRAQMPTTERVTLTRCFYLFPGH
The settings on record: cited from earlier work.

The target of series [11] is T2, fragmentin 2 (Rattus norvegicus, UniProt P18291).
T2 sequence (P18291 21-248): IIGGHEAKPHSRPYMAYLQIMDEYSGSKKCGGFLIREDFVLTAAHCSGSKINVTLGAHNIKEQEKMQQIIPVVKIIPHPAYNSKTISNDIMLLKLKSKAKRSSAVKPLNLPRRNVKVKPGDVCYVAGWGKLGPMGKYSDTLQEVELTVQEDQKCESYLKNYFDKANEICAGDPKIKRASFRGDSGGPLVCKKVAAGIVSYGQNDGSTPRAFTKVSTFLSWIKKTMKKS
The settings on record: read-out: ID50 (the source's name); cited from earlier work.

Series [12] relates to Bax-mediated apoptosis. The settings on record: cited from earlier work.
Series [13] deals with Bax (Bcl-2-associated X protein) (Homo sapiens, UniProt Q07812). The settings on record: cited from earlier work.

Where a SMILES comes first, the peptide text is derived from it. The star is where a group is joined. Cbz = O=C(OCc1ccccc1)*; CH2Cl = ClC*; CH2F = FC*

Sequence of Bax (Bcl-2-associated X protein) (Q07812 whole entry): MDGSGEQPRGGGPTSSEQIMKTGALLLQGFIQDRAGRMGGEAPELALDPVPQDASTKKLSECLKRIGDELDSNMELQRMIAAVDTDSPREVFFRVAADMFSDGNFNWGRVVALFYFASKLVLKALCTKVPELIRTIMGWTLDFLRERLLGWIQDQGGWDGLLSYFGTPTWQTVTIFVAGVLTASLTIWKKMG
Sequence of caspase-8 (Q14790 217-479, species assumed): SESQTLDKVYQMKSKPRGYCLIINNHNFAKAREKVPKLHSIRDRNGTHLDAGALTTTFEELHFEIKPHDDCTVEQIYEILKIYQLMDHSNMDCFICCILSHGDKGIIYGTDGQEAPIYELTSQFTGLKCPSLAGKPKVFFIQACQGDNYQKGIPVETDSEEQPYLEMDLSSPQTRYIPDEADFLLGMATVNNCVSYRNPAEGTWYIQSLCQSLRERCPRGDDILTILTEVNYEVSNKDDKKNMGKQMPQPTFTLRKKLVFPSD
Sequence of anthrax lethal factor (P15917 34-809 limits assumed): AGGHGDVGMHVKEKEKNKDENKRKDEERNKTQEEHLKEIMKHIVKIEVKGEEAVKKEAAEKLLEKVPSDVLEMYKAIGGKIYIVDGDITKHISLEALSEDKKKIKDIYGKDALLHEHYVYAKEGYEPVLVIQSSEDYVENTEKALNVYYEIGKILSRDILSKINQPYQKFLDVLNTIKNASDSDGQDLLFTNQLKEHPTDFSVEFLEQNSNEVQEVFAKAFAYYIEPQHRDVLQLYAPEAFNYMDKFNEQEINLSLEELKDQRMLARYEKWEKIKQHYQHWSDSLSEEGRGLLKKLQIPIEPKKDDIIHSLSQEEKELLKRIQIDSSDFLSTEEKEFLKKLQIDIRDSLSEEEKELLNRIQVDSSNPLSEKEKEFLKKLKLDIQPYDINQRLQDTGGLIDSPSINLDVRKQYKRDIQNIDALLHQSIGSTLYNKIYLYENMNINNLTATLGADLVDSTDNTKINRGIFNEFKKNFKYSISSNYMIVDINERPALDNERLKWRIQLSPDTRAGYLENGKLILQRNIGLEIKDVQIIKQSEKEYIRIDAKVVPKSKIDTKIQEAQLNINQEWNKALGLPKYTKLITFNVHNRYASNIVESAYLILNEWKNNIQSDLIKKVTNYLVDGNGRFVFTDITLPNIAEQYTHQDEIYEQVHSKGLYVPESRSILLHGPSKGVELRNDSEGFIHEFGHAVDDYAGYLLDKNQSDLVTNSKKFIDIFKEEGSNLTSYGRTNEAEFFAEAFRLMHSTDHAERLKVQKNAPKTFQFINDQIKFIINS

In the case of `FC(F)(F)c1cccc(-c2csc(C3COc4ccccc4O3)n2)c1` (stereo not drawn) [Caspase Inhibitor X], the effect on activity entry in series [1] is “assisted cleavage of BID, a proapoptotic protein. Weakly affects”. With `O=C(C=Cc1ccc(C=CC(=O)Nc2ccc(C3=NCCN3)cc2)cc1)Nc1ccc(C2=NCCN2)cc1` [GW 4869], the “protection against cell death” value in series [2] was “specific PLC. Reported to offer complete protection against TNF-α”.

On to `COc1cc(-n2c(=S)[nH]c3ccccc3c2=O)c(Cl)cc1Cl` [Mdivi-1, 3-(2,4-Dichloro-5-methoxyphenyl)-2,3-dihydro-2-thioxo-4(1H)-quinazolinone], for which the IC50 in [3] is approximately 10000 nM. For `O=[N+]([O-])c1ccc(-c2cn3c4c(sc3n2)CCCC4)cc1` [Pifithrin-α, p-Nitro, Cyclic], in series [4], the “potency relative to Pifithrin-α” value is “A cell-permeable p53 inhibitor that exhibits 10-fold higher potency” and the EC50 was 30 nM. Further, the “half-life longer than Pifithrin-α” value in series [5] is 50%. Regarding `N=c1sc2c(n1CC(=O)c1ccc([N+](=O)[O-])cc1)CCCC2` [Pifithrin-α, p-Nitro], the EC50 in series [4] is 300 nM. Moreover, the “potency relative to Pifithrin-α” value in series [6] is recorded as 100-fold more potent than Pifithrin-α when adminstered in rats in. For `CC(C)C(NC(=O)c1ccc2ccccc2n1)C(=O)NC(CC(=O)O)C(=O)COc1c(F)cccc1F` (stereo not drawn) [Q-VD-OPh, Quinoline-Val-Asp-CH2-OPH], the “genomic DNA release/fragmentation” value in [7] (1 μM caspase inhibitor with 21.4 mM glucose) is given as “significantly reduced the genomic DNA release/fragmentation”; in series [7] (4 μM caspase inhibitor with 21.4 mM glucose, compared with 1 μM) it was “improved”. Moreover, in series [7], the “ladder-like pattern of DNA bands (release/fragmentation of genomic DNA)” value was “significantly reduced ladder-like patterns”. The figures for the “increase of genomic DNA in the plasma (18S DNA duplex assay)” value in series [8] (1 μM in combination with 21 mM glucose) and in [8] (4 μM in combination with 21 mM glucose) were “only a minor increase of genomic DNA” and not above 4 fold, respectively. For the same compound, the “x-fold increase of ribosomal 18S DNA in plasma” value in series [8] is given as “reduced increase of DNA”. For `COC(=O)C[C@H](NC(=O)[C@H](C)NC(=O)[C@@H](NC(=O)OCc1ccccc1)C(C)C)C(=O)CF` [Z-Val-Ala-Asp(OMe)-FMK] (Cbz-Val-Ala-Asp(OMe)-CH2F), in [7], the “ladder-like pattern of DNA bands (release/fragmentation of genomic DNA)” value is listed as “reduced ladder-like pattern”. For the same compound, the “x-fold increase of ribosomal 18S DNA in plasma” value in [8] is “more prominent on day 7”. As for `O[C@H]1[C@H](O)[C@@H](O)[C@H](O)[C@@H](O)[C@H]1O` [inositol, Cyclohexane-1,2,3,4,5,6-geksol], the “relative change of ccfDNA level (day X copies/day 0 copies)” value in series [8] (concentrations of for example 0.05 M, room temperature up to six days) is reported as “suitable alternatives”. As for `OC[C@@H](O)[C@@H](O[C@H]1O[C@H](CO)[C@@H](O)[C@H](O)[C@H]1O)[C@H](O)[C@@H](O)CO` [maltitol, 4-O-α-D-Glucopyranosyl-D-glucitol], the “relative change of ccfDNA level (day X copies/day 0 copies)” value in series [8] (concentrations ≤0.01M, room temperature up to six days) is “suitable alternatives”.

Take `OCC(O)C(O)C(O)C(O)CO` (stereo not drawn) [mannitol, Hexane-1,2,3,4,5,6-hexol]: in [8] (0.1, 0.05, 0.01 M tested, room temperature), the “relative change of ccfDNA level (day X copies/day 0 copies)” value is “stabilization effects over 3 days”. What is called Ki is the dissociation constant of the complex between target and ligand, obtained from inhibition or displacement. As to Ac-IETD-aldehyde, in [9], the Ki is 1 nM. On to “Ac-Tyr-Val-Ala-Asp-CHO [Caspase-1 Inhibitor I]”, for which the Ki in series [10] was 0.2 nM.

Turning to “Cbz-Ala-Ala-Asp-CH2Cl [Granzyme B Inhibitor I]”, the IC50 in series [11] is 300 nM. On to “H-Val-Pro-Met-Leu-Lys-OH (H-VPMLK-OH) [Bax-Inhibiting Peptide, V5]”, for which, in series [12], the “effective concentration for Bax-mediated apoptosis” value is on record as “mediated apoptosis (~50-200 μM). Also effectively blocks caspase-”.

As usually defined, the Kd is the constant that tells how readily two partners part at equilibrium. As to “Humanin, Human, Synthetic: A 24-residue anti-apoptotic peptide”, the Kd in series [13] is approximately 2 nM.
